Literature values as cited in patent US20110311619A1 (Ethypharm, priority 2008, published 2011).

## CC(C)(Oc1ccc(C(=O)c2ccc(Cl)cc2)cc1)C(=O)O [fenofibric acid]
Dose of 300 mg fenofibrate per day
  mean plasma concentration: roughly 15 μg/ml
In vivo
  plasma elimination half-life: roughly 20 hours
On average, after ingestion of the drug
  time after ingestion at which maximum plasma concentration is reached: five
